# Key:
# [1] = (§1) The compound was tested for the inhibition of D-alanine:D-alanine ligase from streptococcus faecalis; parameters: species or system Enterococcus faecalis
# Enterococcus faecalis = experiment: as §1
compound,measurement,setting,value
C=CC(N)P(=O)(O)O (configuration not stated),Ki,[1],5 mM
same,Km,Enterococcus faecalis,7 mM

# Reference: ChEMBL document CHEMBL1123160, “(1-Amino-2-propenyl) phosphonic acid, an inhibitor of alanine racemase and D-alanine:D-alanine ligase” (J Med Chem, 1986)
